Laboratory results as given in US7368279B2, “Three dimensional bioengineered smooth muscle tissue and sphincters and methods therefor” (The Regents of The University of Michigan, priority 2004, dated 2008).
“Also recorded” adds a separate entry of the source.

Test system: bioengineered IAS rings
Assay: Isometric force (contraction/relaxation) of bioengineered IAS rings
Type: cell-based, rabbit
Description: Excitability and contractility of bioengineered IAS rings was measured using techniques adapted from previous work (Dennis et al., In Vitro Cellular & Developmental Biology Animal 36: 327-335, 2000. Dennis et al., American Journal of Physiology Cell Physiology 280: C288-C295, 2001). The diameter of the sphincter rings was measured and used to calculate cross-sectional area (CSA). The bioengineered sphincters were separated from their molds using forceps (FIG. 1 Panel E) and the minimum ring diameter was measured using a calibrated eyepiece and a 5× or 10× objective lens on an inverted microscope (Zeiss Axiovert 25, Thornwood, N.Y.). The cross section was circular, and therefore the CSA was calculated using the measured diameter. To measure the passive baseline force, the differentiation media in the plate containing the bioengineered sphincter was replaced with 37° C. Krebs solution (NaCl (119 mM), KCl (4.6 mM), NaHCO3 (15 mM), CaCl2 (1.5 mM), MgCl2 (1.2 mM), […], and glucose (11 mM)) and the plate was placed on a heated aluminum platform, which maintained a temperature of 37° C. until the testing was complete. For contractility measurements, one end of the bioengineered sphincter was anchored by a stainless steel pin (10 mm×0.1 mm diameter) to the PDMS substrate within the plate, while another stainless steel pin was bent in the shape of a hook and attached by canning wax to a force transducer (resolution of 1.4 μN and range of 2mN) as previously described (Dennis et al., In Vitro Cellular & Developmental Biology Animal 36: 327-335, 2000, Macpherson et al., J Physiol 500: 523-533, 1997) and as depicted in FIG. 1 (Panels F and G). The bioengineered sphincter was stretched approximately 50% of its resting length using a three-axis micromanipulator. The ring was allowed to sit for 20 minutes in order to reestablish a stable baseline level of force (Pb), which was measured as the average baseline passive force preceding stimulation. All force measurements were collected at 100 samples/second for 60 seconds and recorded using a computer with LabVIEW data acquisition software (National Instruments, Austin, Tex.). A median filter of rank 2 was applied to all raw force data before being stored to minimize digitization noise without causing a phase delay for rapidly changing forces. The peak isometric force (ΔP) was determined by subtracting the Pb from the total force values. Specific force (sΔP) was calculated by dividing ΔP by the CSA. Data analysis was done using LabVIEW and Microsoft Excel software programs. Each measurement was repeated at least three times and the mean value was recorded. Contractions were induced in the rings by the addition of acetylcholine. Dose-response relationships of acetylcholine were investigated in the range of 10^−6M to 10^−10M. Incremental doses of acetylcholine were added after the maximal response of the preceding concentration and the establishment of a new baseline. Relaxation response in the rings was induced by the addition of 8-Bromoadenosine 3′:5′-Cyclic Monophosphate (8-br-cAMP). Maximal relaxation was achieved after approximately 4 minutes and therefore relaxation measurements are collective of four consecutive 1-minute data recordings.

`Nc1ncnc2c1nc(Br)n2[C@@H]1O[C@@H]2COP(=O)(O)O[C@H]2[C@H]1O` [8-br-cAMP, 8-Bromoadenosine 3′:5′-Cyclic Monophosphate] was tested, and the “relaxation of acetylcholine-induced contraction” value (10^−5 M 8-br-cAMP added after 10^−6 M acetylcholine, Krebs buffer) was “rapid relaxation; also recorded: immediate relaxation”, the “ΔP (relaxation response)” value (10^−5 M 8-br-cAMP, 4 minutes, 0 Ca2+/2 mM EGTA Krebs) was −23±4 μN and the “average ΔP (relaxation from basal tone)” value (10^−5 M 8-br-cAMP, 4 minutes, Krebs buffer) was −16.3±2.0 μN.
